The values that follow are results of earlier work, collected in US20140023692A1, “DRUG DELIVERY DEVICE” (priority 2010, published 2014).

In brackets after ≈: the same amount, converted by molar mass. Several values for one entry are separate records, joined by “and”; a condition that tells them apart may be missing. Equal values may be shown once. Read-outs that look alike come from different tables or passages of the source.

For series [1], the system named is Staphylococcus epidermidis.
For series [2] the following is noted: topical application, rabbit.
The mark [3] stands for this setting: inflamed eyes (intravitreal Staphylococcus aureus, 24 h after inoculation).

Turning to `O=C(O)c1cn(C2CC2)c2cc(N3CCNCC3)c(F)cc2c1=O` [ciprofloxacin], the MIC90 with Enterobacter was 0.206 µg/mL (≈ 0.622 µM); with Klebsiella it was 0.295 µg/mL (≈ 0.89 µM); in the series on Proteus, 0.267 µg/mL (≈ 0.806 µM); in the series on Pseudomonas, 0.50 µg/mL and 0.626 µg/mL; in the series on Haemophilus influenzae, 0.014 µg/mL (≈ 0.0423 µM); with Staphylococcus aureus it was 0.57 µg/mL and 0.796 µg/mL. Also, the MIC90 is 0.25 µg/mL and 0.375 µg/mL in series [1]; 0.782 µg/mL (≈ 2.36 µM) in the series on Streptococcus pyogenes; 0.35 µg/mL (≈ 1.06 µM) in the series with Propionibacterium acnes; 0.25 µg/mL (≈ 0.754 µM) with Bacillus cereus; 0.12 µg/mL (≈ 0.362 µM) in the series on Serratia. The “Mean aqueous concentration of ciprofloxacin” value in [2] (setting [3]) is 3.65 µg/mL; in [2] (normal eyes) it was 2.16 µg/mL. Besides, the “Mean vitreous concentration of ciprofloxacin” value in series [2] (setting [3]) was 0.32 µg/mL; in series [2] (normal eyes) it was 0.08 µg/mL.
